For series [1], the system named is HCV subgenomic reporter replicon of genotype 1b (strain Con1). Put plainly: Anti-HCV 1b activity, luciferase reporter replicon assay in Huh5-2 cells. The series is classed as cell-based, Hepatitis C virus. To be noted: for EC50: Hepatitis C virus, read-out: HCV Replicon 1b EC50; for HCV Replicon 1b SI50: SI50 = CC50/EC50. The method, then: (§1) The HCV RNA replication inhibitory effect of the novel compounds and their impact on cell viability was tested in the stable cell line Huh5-2 carrying an HCV subgenomic reporter replicon of genotype 1b (strain Con1). The viral replication level was measured in terms of the activity of the co-expressed firefly luciferase (F-Luc). Several concentrations of the tested compounds were prepared in a cell culture medium and were used to treat the cells for 72 h. The solvent DMSO was added as a control with a final concentration of 0.2% so as not to impact viral replication (data not shown). First, different compound concentrations of up to 100 μM were evaluated for their effect on cell viability; results are reported as the median cytotoxic concentration (CC50). Next, all compounds were screened for their anti-HCV activity at a concentration of 1 µM, and compounds showing ≥50% activity were further tested in several concentrations to calculate the median effective concentration (EC50) values (Table 1 and Table 2). The anti-HCV activity of the analogs 1–32 was estimated by quantifying luciferase activity resulting from viral replication. Cytotoxicity was determined by measuring the intracellular levels of ATP. The selectivity index (SI50) was calculated as the ratio of CC50 to EC50 and was calculated as an indication of the compounds’ safety. We used daclatasvir as a positive control.
The stable replicon cell line Huh5-2 (genotype 1b; Con1) (kindly provided by R. Bartenschlager, Heidelberg University, Germany) has been described previously. The stable cell lines Huh7.5-3a and Huh7.5-4a have been constructed with the subgenomic reporter replicons of HCV 3a (S52) S52-SG(Feo)(AII) and HCV 4a (ED43) ED43-SG(Feo)(VYG) (kindly provided by C.M. Rice, The Rockefeller University, NY). Cells were cultured in high glucose (25 mM) Dulbecco’s modified minimal essential medium (Invitrogen), supplemented with 2 mM L-glutamine, 0.1 mM non-essential amino acids, 100 U/mL penicillin, 100 µg/mL streptomycin, and 10% (v/v) fetal calf serum (referred to as complete DMEM). Complete DMEM was supplemented with G418 at 500 μg/mL for Huh5-2, 750 μg/mL for Huh7.5-3a, and 350 μg/mL for Huh7.5-4a.
(§2) Cells were treated with serial dilutions of the test compounds or the solvent DMSO for 72 h. Antiviral activity and cytotoxicity were determined by measuring virus-derived luciferase activity or intracellular ATP levels, respectively. The median effective concentration (EC50) of the compounds, reducing luciferase signal by 50%, and their median cytotoxic concentration (CC50), causing 50% cell death, were determined by nonlinear regression analysis using the Prism 6.0 software (GraphPad Software Inc.). Daclatasvir was kindly provided by Dr. Marc Windisch (Institut Pasteur Korea).
Firefly luciferase activity was measured using Luciferase Assay System (Promega), according to the manufacturer’s instructions. Measurements were performed with a GloMax 20/20 single tube luminometer (Promega) for 10 s. Values were normalized to total protein amounts as quantified by Bradford assay (Pierce).
In general terms: In a reporter assay the amount or activity of a reporter protein is the signal.

Series [2] in a line: Cytotoxicity by intracellular ATP levels. To be noted: human, Huh5-2 cells, read-out: HCV Replicon 1b CC50. Format: cell-based. The method, then: as §1, §2
ATP was measured using the ViaLight HS BioAssay kit (Lonza) according to the manufacturer’s protocol in a GloMax 20/20 single-tube luminometer (Promega) for 1 s. Values were normalized to total protein amounts.

The mark [3] stands for this setting: Huh-5-2, Huh5-2 cells, 72 h, luciferase activity.

The text below walks through data of publication PMC8064491, “Design and Synthesis of Novel Symmetric Fluorene-2,7-Diamine Derivatives as Potent Hepatitis C Virus Inhibitors” (Pharmaceuticals, 2021).

Usually EC50 stands for the concentration giving half of the maximal effect. Broadly, the CC50 is the concentration that lowers cell viability or growth by half.

Where two headings read alike, the source gives them in different places.

On to `COC(=O)N[C@H](C(=O)N1CCCC(C(=O)Nc2ccc3c(c2)Cc2cc(NC(=O)C4CCCN(C(=O)[C@@H](NC(=O)OC)C(C)C)C4)ccc2-3)C1)C(C)C` (some centres unmarked) [Compound 29], for which, in series [1] (Huh-5-2, 72 h), the EC50 was determined as 342 nM. Besides, the “HCV Replicon 1b SI50” value in series [1] is listed as >292. Moreover, the 50% cytotoxic concentration (CC50) at 72 h in series [2] is > 100000 nM.

Consider `CC(C)[C@@H](NC(=O)OCc1ccccc1)C(=O)N1CCC[C@H]1C(=O)Nc1ccc2c(c1)Cc1cc(NC(=O)[C@@H]3CCCN3C(=O)[C@H](NC(=O)OCc3ccccc3)C(C)C)ccc1-2` [Compound 8, Dibenzyl((2R,2’R)-((2S,2’S)-(((9H-fluorene-2,7-diyl)bis(azanediyl))bis(carbonyl))bis(pyrrolidine-2,1-diyl))bis(3-methyl-1-oxobutane-1,2-diyl))dicarbamate], for which the concentration giving a half-maximal response (EC50) in series [1] (Huh-5-2, 72 h) stood at 45.4 nM. Besides, the “HCV Replicon 1b SI50” value in series [1] is >2202. In series [2], the CC50 at 72 h was > 100000 nM.

As for `CCCCOC(=O)N[C@@H](C(=O)N1CCC[C@H]1C(=O)Nc1ccc2c(c1)Cc1cc(NC(=O)[C@@H]3CCCN3C(=O)[C@H](NC(=O)OCCCC)C(C)C)ccc1-2)C(C)C` [Compound 7, Dibutyl((2R,2’R)-((2S,2’S)-(((9H-fluorene-2,7-diyl)bis(azanediyl))bis(carbonyl))bis(pyrrolidine-2,1-diyl))bis(3-methyl-1-oxobutane-1,2-diyl))dicarbamate], in series [1] (Huh-5-2, 72 h), the EC50 was 981 nM. In series [1], the “HCV Replicon 1b SI50” value is recorded as >102. The CC50 at 72 h in series [2] was > 100000 nM.

With `COC(=O)N[C@H](C(=O)N1CCC[C@H]1C(=O)Nc1ccc2c(c1)Cc1cc(NC(=O)[C@@H]3CCCN3C(=O)[C@@H](NC(=O)OC)C(C)C)ccc1-2)C(C)C` [Compound 1, Dimethyl((2S,2’S)-((2S,2’S)-(((9H-fluorene-2,7-diyl)bis(azanediyl))bis(carbonyl))bis(pyrrolidine-2,1-diyl))bis(3-methyl-1-oxobutane-1,2-diyl))dicarbamate], in series [1] (1, 9, 17, 21 vs 29, 30, 31, 32 respectively, HCV 1b EC50 ratio), the “fold more potent than six-membered congeners” value is reported as “five”.

With `CCCCOC(=O)N[C@H](C(=O)N1CCC[C@H]1C(=O)Nc1ccc2c(c1)Cc1cc(NC(=O)[C@@H]3CCCN3C(=O)[C@@H](NC(=O)OCCCC)C(C)C)ccc1-2)C(C)C` [Compound 3, Dibutyl((2S,2’S)-((2S,2’S)-(((9H-fluorene-2,7-diyl)bis(azanediyl))bis(carbonyl))bis(pyrrolidine-2,1-diyl))bis(3-methyl-1-oxobutane-1,2-diyl))dicarbamate], the 50% effective concentration (EC50) in series [1] (Huh-5-2, 72 h) is > 1000 nM. Also, in series [2], the CC50 at 72 h was > 100000 nM.

As for `COC(=O)N[C@@H](C(=O)N1CCC[C@H]1C(=O)Nc1ccc2c(c1)Cc1cc(NC(=O)[C@@H]3CCCN3C(=O)[C@H](NC(=O)OC)c3ccccc3)ccc1-2)c1ccccc1` [Compound 25, Dimethyl((1R,1’R)-((2S,2’S)-(((9H-fluorene-2,7-diyl)bis(azanediyl))bis(carbonyl))bis(pyrrolidine-2,1-diyl))bis(2-oxo-1-phenylethane-2,1-diyl))dicarbamate], the “fold more active than S counterparts” value in series [1] (25 vs 21, 26 vs 22, HCV 1b EC50 ratio) worked out at 60 fold. Besides, the “times less potent than compound 26” value in series [1] (HCV 1b EC50 ratio) was “four times less potent”. For the same compound, the EC50 in series [1] (Huh-5-2, 72 h) is 0.142 nM. Also, the “HCV Replicon 1b SI50” value in series [1] is 669,874. The cytotoxic concentration (CC50) at 72 h in series [2] was 95400 nM.

`CCOC(=O)N[C@H](CC(C)C)C(=O)N1CCC[C@H]1C(=O)Nc1ccc2c(c1)Cc1cc(NC(=O)[C@@H]3CCCN3C(=O)[C@@H](CC(C)C)NC(=O)OCC)ccc1-2` [Compound 14, Diethyl ((2R,2’R)-((2S,2’S)-(((9H-fluorene-2,7-diyl)bis(azanediyl))bis(carbonyl))bis(pyrrolidine-2,1-diyl))bis(4-methyl-1-oxopentane-1,2-diyl))dicarbamate]: in series [1] (Huh-5-2, 72 h), the half-maximal effective concentration (EC50) was determined as 2.55 nM. The “HCV Replicon 1b SI50” value in series [1] is reported as >39,185. For the same compound, in series [2], the CC50 at 72 h is > 100000 nM.

On to `COC(=O)N[C@H](CC(C)C)C(=O)N1CCC[C@H]1C(=O)Nc1ccc2c(c1)Cc1cc(NC(=O)[C@@H]3CCCN3C(=O)[C@@H](CC(C)C)NC(=O)OC)ccc1-2` [Compound 13, Dimethyl((2R,2’R)-((2S,2’S)-(((9H-fluorene-2,7-diyl)bis(azanediyl))bis(carbonyl))bis(pyrrolidine-2,1-diyl))bis(4-methyl-1-oxopentane-1,2-diyl))dicarbamate], for which the concentration giving a half-maximal response (EC50) in series [1] (Huh-5-2, 72 h) was 0.081 nM. The “HCV Replicon 1b SI50” value in series [1] is >1,238,850. The CC50 at 72 h in series [2] was > 100000 nM.

Regarding `O=C(N[C@H](C(=O)N1CCC[C@H]1C(=O)Nc1ccc2c(c1)Cc1cc(NC(=O)[C@@H]3CCCN3C(=O)[C@@H](NC(=O)OCc3ccccc3)c3ccccc3)ccc1-2)c1ccccc1)OCc1ccccc1` [Compound 24, Dibenzyl((1S,1’S)-((2S,2’S)-(((9H-fluorene-2,7-diyl)bis(azanediyl))bis(carbonyl))bis(pyrrolidine-2,1-diyl))bis(2-oxo-1-phenylethane-2,1-diyl))dicarbamate], the EC50 in series [1] (setting [3]) is 1.12 nM. Also, in series [1], the “HCV Replicon 1b SI50” value is >89,606. Also, the half-maximal cytotoxic concentration (CC50) at 72 h in series [2] is > 100000 nM.

In the case of `CCCCOC(=O)N[C@H](C(=O)N1CCC[C@H]1C(=O)Nc1ccc2c(c1)Cc1cc(NC(=O)[C@@H]3CCCN3C(=O)[C@@H](NC(=O)OCCCC)c3ccccc3)ccc1-2)c1ccccc1` [Compound 23, Dibutyl((1S,1’S)-((2S,2’S)-(((9H-fluorene-2,7-diyl)bis(azanediyl))bis(carbonyl))bis(pyrrolidine-2,1-diyl))bis(2-oxo-1-phenylethane-2,1-diyl))dicarbamate], the 50% effective concentration (EC50) in series [1] (Huh-5-2, 72 h) came out at 2.25 nM. For the same compound, the “HCV Replicon 1b SI50” value in series [1] was >44,444. Moreover, the half-maximal cytotoxic concentration (CC50) at 72 h in series [2] is > 100000 nM.

Take `O=C(N[C@@H](C(=O)N1CCC[C@H]1C(=O)Nc1ccc2c(c1)Cc1cc(NC(=O)[C@@H]3CCCN3C(=O)[C@H](NC(=O)OCc3ccccc3)c3ccccc3)ccc1-2)c1ccccc1)OCc1ccccc1` [Compound 28, Dibenzyl((1R,1’R)-((2S,2’S)-(((9H-fluorene-2,7-diyl)bis(azanediyl))bis(carbonyl)) Bis(pyrrolidine-2,1-diyl))bis(2-oxo-1-phenylethane-2,1-diyl))dicarbamate]: the “times less potent than compound 26” value in series [1] (HCV 1b EC50 ratio) stood at 2363 times. Besides, in series [1] (setting [3]), the EC50 was found to be 94.5 nM. In series [1], the “HCV Replicon 1b SI50” value is >1,058. Moreover, the CC50 at 72 h in series [2] is > 100000 nM.

For `CCCCOC(=O)N[C@H](CC(C)C)C(=O)N1CCC[C@H]1C(=O)Nc1ccc2c(c1)Cc1cc(NC(=O)[C@@H]3CCCN3C(=O)[C@@H](CC(C)C)NC(=O)OCCCC)ccc1-2` [Compound 15, Dibutyl((2R,2’R)-((2S,2’S)-(((9H-fluorene-2,7-diyl)bis(azanediyl))bis(carbonyl))bis(pyrrolidine-2,1-diyl))bis(4-methyl-1-oxopentane-1,2-diyl))dicarbamate], the EC50 in series [1] (Huh-5-2, 72 h) is > 1000 nM. The CC50 at 72 h in series [2] is 34200 nM.

As for `CCC(C)[C@H](NC(=O)OC)C(=O)N1CCCC(C(=O)Nc2ccc3c(c2)Cc2cc(NC(=O)C4CCCN(C(=O)[C@@H](NC(=O)OC)C(C)CC)C4)ccc2-3)C1` (some centres unmarked) [Compound 31], in series [1] (Huh-5-2, 72 h), the EC50 is 296 nM. Moreover, the “HCV Replicon 1b SI50” value in series [1] is 333. The cytotoxic concentration (CC50) at 72 h in series [2] is 98300 nM.

Regarding `COC(=O)N[C@@H](C(=O)N1CCC[C@H]1C(=O)Nc1ccc2c(c1)Cc1cc(NC(=O)[C@@H]3CCCN3C(=O)[C@H](NC(=O)OC)C(C)C)ccc1-2)C(C)C` [Compound 5, Dimethyl ((2R,2’R)-((2S,2’S)-(((9H-fluorene-2,7-diyl)bis(azanediyl))bis(carbonyl))bis(pyrrolidine-2,1-diyl))bis(3-methyl-1-oxobutane-1,2-diyl))dicarbamate], in series [1] (Huh-5-2, 72 h), the half-maximal effective concentration (EC50) was 801 nM. The “HCV Replicon 1b SI50” value in series [1] was >125. In addition, the cytotoxic concentration (CC50) at 72 h in series [2] was > 100000 nM.
